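1) Cells in 96-well plates. 2) Compound, 48 h, 5 concentrations. 3) Linear interpolation between surrounding doses. 4) Unreached endpoint = highest concentration. Definition used: TGI = concentration required for complete inhibition of growth.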 Where a SMILES comes first, the peptide text is derived from it. The star is where a group is joined. Boc = CC(C)(C)OC(=O)*
Legend:
Assay in all cases: inhibition of tumour cell growth, NCI panel, 48 h
KM12 colon = tested on: KM12 colon
HCT-15 colon = tested on: HCT-15 colon
UO-31 renal = tested on: UO-31 renal
T-47D breast = tested on: T-47D breast
NCI-H226 lung = tested on: NCI-H226 lung
SF-295 CNS = tested on: SF-295 CNS
RXF 393 renal = tested on: RXF 393 renal
NCI-H460 lung = tested on: NCI-H460 lung

COc1ccc(/C=C2\N=C(N3CCOCC3)NC2=O)cc1
TGI (KM12 colon): > 100 µM
TGI (HCT-15 colon): > 100 µM
TGI (UO-31 renal): > 100 µM
TGI (T-47D breast): > 100 µM
TGI (NCI-H226 lung): > 100 µM
TGI (SF-295 CNS): > 100 µM
TGI (RXF 393 renal): > 100 µM

Brc1ccc2[nH]cc([C@@H]3CN[C@@H](c4c[nH]c5ccc(Br)cc45)CN3)c2c1
TGI (NCI-H460 lung): 24.4 µM
TGI (KM12 colon): 7.06 µM
TGI (HCT-15 colon): 24.8 µM
TGI (UO-31 renal): 9.47 µM
TGI (T-47D breast): 29.2 µM
TGI (NCI-H226 lung): 31.3 µM
TGI (SF-295 CNS): 14.7 µM
TGI (RXF 393 renal): 24.5 µM

C=CC(C)(C)c1c(OC)oc2ccc(OC)c(C)c2c1=O
TGI (NCI-H460 lung): > 100 µM
TGI (KM12 colon): > 100 µM
TGI (HCT-15 colon): > 100 µM
TGI (UO-31 renal): > 100 µM
TGI (T-47D breast): > 100 µM
TGI (NCI-H226 lung): > 100 µM
TGI (SF-295 CNS): > 100 µM

O=C(O)CSc1nc2ccccc2[nH]1
TGI (NCI-H460 lung): > 100 µM
TGI (KM12 colon): > 100 µM
TGI (HCT-15 colon): > 100 µM
TGI (UO-31 renal): > 100 µM
TGI (T-47D breast): > 100 µM
TGI (SF-295 CNS): > 100 µM
TGI (RXF 393 renal): > 100 µM

CC(C)(Cl)C(Br)CCC(=CCBr)CBr (mixture of isomers)
TGI (NCI-H460 lung): 13.6 µM
TGI (KM12 colon): 5.93 µM
TGI (HCT-15 colon): 3.75 µM
TGI (UO-31 renal): 3.42 µM
TGI (T-47D breast): 17.3 µM
TGI (NCI-H226 lung): 51.9 µM
TGI (SF-295 CNS): 11 µM
TGI (RXF 393 renal): 15.7 µM

CNC(=O)CNC(=O)C(NC(=O)CNC(=O)C1CCCN1C(=O)C(C)NC(=O)C(NC(=O)OC(C)(C)C)C(C)C)C(C)C (stereo not given) (Boc-VAPGVG-NHMe; configuration not given here)
TGI (NCI-H460 lung): > 100 µM
TGI (HCT-15 colon): > 100 µM
TGI (UO-31 renal): > 100 µM
TGI (T-47D breast): > 100 µM
TGI (SF-295 CNS): > 100 µM

O=c1[nH]ncc2[nH]c(-c3ccccc3)cc12
TGI (NCI-H460 lung): > 100 µM
TGI (KM12 colon): > 100 µM
TGI (HCT-15 colon): > 100 µM
TGI (UO-31 renal): > 100 µM
TGI (T-47D breast): > 100 µM
TGI (NCI-H226 lung): > 100 µM
TGI (SF-295 CNS): > 100 µM
TGI (RXF 393 renal): 96.5 µM

CC(=O)c1cc2sc3ccccc3c2[nH]1
TGI (NCI-H460 lung): > 100 µM
TGI (KM12 colon): > 100 µM
TGI (HCT-15 colon): > 100 µM
TGI (UO-31 renal): > 100 µM
TGI (T-47D breast): > 100 µM
TGI (SF-295 CNS): > 100 µM
TGI (RXF 393 renal): > 100 µM

N=C(N)SCCSC(=N)N
TGI (NCI-H460 lung): > 100 µM
TGI (KM12 colon): > 100 µM
TGI (HCT-15 colon): > 100 µM
TGI (UO-31 renal): > 100 µM
TGI (T-47D breast): > 100 µM
TGI (NCI-H226 lung): > 100 µM
TGI (SF-295 CNS): > 100 µM
TGI (RXF 393 renal): > 100 µM

CCc1nc2c(n1CC)C(=O)c1ccccc1C2=O
TGI (NCI-H460 lung): > 100 µM
TGI (KM12 colon): > 100 µM
TGI (HCT-15 colon): > 100 µM
TGI (T-47D breast): 57 µM
TGI (NCI-H226 lung): > 100 µM
TGI (SF-295 CNS): > 100 µM
TGI (RXF 393 renal): 51 µM

Cc1ccc(C)n1-n1c(Cc2ccc(Cl)cc2)n[nH]c1=O
TGI (NCI-H460 lung): > 100 µM
TGI (KM12 colon): > 100 µM
TGI (HCT-15 colon): > 100 µM
TGI (UO-31 renal): > 100 µM
TGI (T-47D breast): > 100 µM
TGI (NCI-H226 lung): > 100 µM
TGI (SF-295 CNS): > 100 µM
TGI (RXF 393 renal): > 100 µM

CC(=O)OC12c3ccccc3C(c3ccccc31)C1C(=O)N(c3ccccc3O)C(=O)C12 (stereo not given)
TGI (NCI-H460 lung): > 100 µM
TGI (KM12 colon): > 100 µM
TGI (HCT-15 colon): > 100 µM
TGI (UO-31 renal): > 100 µM
TGI (T-47D breast): > 100 µM
TGI (NCI-H226 lung): > 100 µM
TGI (SF-295 CNS): > 100 µM
TGI (RXF 393 renal): > 100 µM

N[C@@H]1c2c(Br)sc(Br)c2C(=O)[C@H]1Br
TGI (NCI-H460 lung): > 100 µM
TGI (KM12 colon): > 61.5 µM
TGI (HCT-15 colon): 60.8 µM
TGI (UO-31 renal): 55.6 µM
TGI (T-47D breast): 84 µM
TGI (NCI-H226 lung): > 58.4 µM
TGI (SF-295 CNS): > 100 µM
TGI (RXF 393 renal): 53.6 µM

c1ccc(C2C3=C(c4ccccc4CC3)N3c4cc5nc6ccccc6nc5cc4NC34CCCCC24)cc1 (stereo not given)
TGI (NCI-H460 lung): > 10 µM
TGI (KM12 colon): > 10 µM
TGI (HCT-15 colon): > 10 µM
TGI (UO-31 renal): > 10 µM
TGI (T-47D breast): > 10 µM
TGI (NCI-H226 lung): > 10 µM
TGI (SF-295 CNS): > 10 µM
TGI (RXF 393 renal): > 10 µM

C=CC(Br)(CBr)CCC1OC1(C)C (stereo not given)
TGI (NCI-H460 lung): 28.3 µM
TGI (KM12 colon): 30.9 µM
TGI (UO-31 renal): 32.8 µM
TGI (NCI-H226 lung): 42.6 µM
TGI (SF-295 CNS): 32 µM
TGI (RXF 393 renal): 21.4 µM

O=c1cc(CN2CCCCC2)[nH]c2c1ccc1nc(CN3CCCCC3)cc(=O)n12
TGI (NCI-H460 lung): > 100 µM
TGI (KM12 colon): > 100 µM
TGI (HCT-15 colon): > 100 µM
TGI (UO-31 renal): > 100 µM
TGI (T-47D breast): > 100 µM
TGI (NCI-H226 lung): > 100 µM
TGI (SF-295 CNS): > 100 µM
TGI (RXF 393 renal): > 100 µM

N#Cc1nc(/C=C/c2cccs2)oc1N
TGI (KM12 colon): > 100 µM
TGI (HCT-15 colon): > 100 µM
TGI (UO-31 renal): 63.6 µM
TGI (RXF 393 renal): > 100 µM

COc1ccc(-c2nc(SCC(=O)N/N=C/c3ccc([N+](=O)[O-])cc3)[nH]c2-c2ccc(OC)cc2)cc1
TGI (NCI-H460 lung): 45.8 µM
TGI (KM12 colon): 35.9 µM
TGI (HCT-15 colon): > 85.1 µM
TGI (UO-31 renal): > 100 µM
TGI (T-47D breast): > 100 µM
TGI (SF-295 CNS): > 69 µM
TGI (RXF 393 renal): 56.6 µM

Cc1ccc(OC2CC(n3cnc4c(=O)[nH]c(Br)nc43)OC2Oc2ccc(C)cc2)cc1 (stereo not given)
TGI (NCI-H460 lung): 43.2 µM
TGI (KM12 colon): > 100 µM
TGI (HCT-15 colon): 91.6 µM
TGI (UO-31 renal): 38.4 µM
TGI (T-47D breast): 62.1 µM
TGI (NCI-H226 lung): > 100 µM
TGI (SF-295 CNS): 61.9 µM
TGI (RXF 393 renal): 60.5 µM

C=CC[C@H](O)[C@@](NC(=O)OCc1ccccc1)(Sc1ccc(C)cc1)C(F)(F)F
TGI (NCI-H460 lung): > 100 µM
TGI (KM12 colon): > 100 µM
TGI (HCT-15 colon): > 100 µM
TGI (UO-31 renal): 55.4 µM
TGI (NCI-H226 lung): 35.9 µM
TGI (SF-295 CNS): 66.7 µM
TGI (RXF 393 renal): 53 µM

O=C(CC(O)(C(F)(F)Cl)C(F)(F)Cl)CC(O)(C(F)(F)Cl)C(F)(F)Cl
TGI (NCI-H460 lung): > 10 µM
TGI (KM12 colon): > 10 µM
TGI (HCT-15 colon): > 10 µM
TGI (UO-31 renal): > 10 µM
TGI (T-47D breast): 6.6 µM
TGI (NCI-H226 lung): 4.66 µM
TGI (SF-295 CNS): 9.51 µM
TGI (RXF 393 renal): 6.08 µM

CN1CCN(Cn2nc(-c3ccccc3)n(/N=C/c3ccc(-c4ccc(Cl)cc4Cl)o3)c2=S)CC1
TGI (NCI-H460 lung): > 100 µM
TGI (KM12 colon): 41.3 µM
TGI (HCT-15 colon): 21.2 µM
TGI (UO-31 renal): 29 µM
TGI (T-47D breast): 45.1 µM
TGI (NCI-H226 lung): 53.2 µM
TGI (SF-295 CNS): 29.9 µM
TGI (RXF 393 renal): 14 µM

COc1cc(Br)cc2c1O[C@H]1C(=O)CC3CC21CCN3C (stereo not given in full)
TGI (KM12 colon): > 100 µM
TGI (HCT-15 colon): > 100 µM
TGI (UO-31 renal): > 100 µM
TGI (T-47D breast): 74 µM
TGI (SF-295 CNS): > 100 µM

CC[C@H](C)[C@H](NC(=O)[C@H](Cc1ccc(O)cc1)NCC(F)(F)F)C(=O)OC(C)(C)C
TGI (NCI-H460 lung): 14.1 µM
TGI (KM12 colon): 18.7 µM
TGI (HCT-15 colon): 34.2 µM
TGI (UO-31 renal): 14.8 µM
TGI (T-47D breast): 18.3 µM
TGI (NCI-H226 lung): 18.8 µM
TGI (SF-295 CNS): 15.2 µM
TGI (RXF 393 renal): 17.7 µM

COc1cc(S(=O)(=O)Nc2ccc(-c3csc(/N=C\c4ccccc4O)n3)cc2)ccc1Cl
TGI (KM12 colon): > 100 µM
TGI (HCT-15 colon): > 100 µM
TGI (UO-31 renal): > 100 µM
TGI (T-47D breast): 61.2 µM
TGI (NCI-H226 lung): > 100 µM
TGI (SF-295 CNS): > 100 µM
TGI (RXF 393 renal): > 100 µM

From PubChem BioAssay (NCI)
